Assay: SIF
Conditions: up to 72 hours

Substance	cleaved bond	not cleaved
cyclo(-D-Trp^1-Lys-Thr-Phe-Pro-Phe^6-)	Lys2-Thr3, major, 1 hour	–
cyclo(D-Trp^1-Lys'-Thr-Phe-Pro-Phe^6)	–	prevented the degradation of the macrocycle over 72 h
cyclo(D-Trp^1-Lys-Thr-Phe-Pro-Phe^6)	–	prevented the degradation of the macrocycle over 72 h

— article PMC10539501 (Nature Communications, 2023)
